Earlier results, collected in patent publication US20040102462A1, “2-(2-amino-1,6-dihydro-6-oxo-purin-9-yl) methoxy-1,3-propanediol derivative” (priority 1994, published 2004).

Conditions: rats; % of the acyclovir dosed

In the case of Nc1nc2c(ncn2COCCO)c(=O)[nH]1 [acyclovir, 2-(2-amino-1,6-dihydro-6-oxo-1,6-dihydro-purin-9-yl)methoxy-ethanol], the “acyclovir recovered in the urinary recovery assay” value is listed as 19%.
